Experiment [1] concerns RKO human rectal cancer cell line. The experiment can be described thus: MTT cell viability, RKO cells. The class given is cell-based. The note with it: 24 hours, in comparison with Iressa. On the procedure:
(§1) The above cell lines were plated in 96-well plates at a density of 1×10^4 cells/well for 16 to 20 hours. […] After drug treatment, the cell lines were washed with phosphate-buffered saline (hereinafter referred to PBS), and were replaced with fresh complete RPMI-1640 medium for 2 days. Thereafter, the medium was replaced and the cells were incubated with 0.5 mg/ml of 3-(4,5-dimethylthiazol-2-yl)-2,5-diphenyltetrazolium bromide reagent (hereinafter referred to MTT, Sigma Chemical Co., St. Louis, Mo.) in complete RPMI-1640 medium for 4 hours. The viable cells converted MTT to formazan that generates a blue-purple color when dissolved in dimethyl sulfoxide (hereinafter referred to DMSO). The intensity of formazan was measured at 565 nm using a plate reader (VERSAmax, Molecular Dynamics, Sunnyvale, Calif.). The relative percentage of cell viability was calculated by dividing the absorbance of treated cells by that of the control in each experiment.

The test system of experiment [2] is BFTC905 human bladder cancer cell line. The experiment in a line: MTT cell viability, BFTC905 cells. The class given is cell-based. The note with it: 24 hours, in comparison with Iressa. On the procedure: as §1
Another experiment deals with A549 cell line. The experiment can be described thus: MTT cell viability, A549 cell line. It counts as cell-based, human. The note with it: Homo sapiens, A549 cell line, 24 hours, MTT. On the procedure:
as §1
After drug treatment, the cells were washed with PBS and replaced with fresh complete RPMI-1640 medium for 2 days. Thereafter, the medium was replaced and the cells were incubated with 0.5 mg/mL of MTT reagent (Sigma Chemical Co., St. Louis, Mo.) in complete RPMI-1640 medium for 4 hours. The intensity of formazan was measured at 565 nm using a plate reader (VERSAmax, Molecular Dynamics, Sunnyvale, Calif.). The relative percentage of cell viability was calculated by dividing the absorbance of treated cells by that of the control in each experiment.

The record followed here is patent US9512086B2, “Compound for promoting apoptosis of cancer cells and a pharmaceutical composition containing the same and uses thereof” (National Chiao Tung University, priority 2014, dated 2016).

A word on the viability: it is a read-out of living cells in per cent, often relative to untreated cells. Low readings indicate a greater loss of cells, high ones better survival.

As for `COc1cc2ncnc(Nc3ccc(F)c(Cl)c3)c2cc1OCCCN1CCN(C(=O)CCC(=O)O)CC1` [Analogue-2, 4-(4-(3-(4-(3-chloro-4-fluorophenylamino)-7-methoxyquinazolin-6-yloxy)propyl)piperazin-1-yl)-4-oxobutanoic acid], in experiment [1], the “toxicity effect on RKO cells” value is “no toxicity effect on RKO cells”. For the same molecule, the “toxicity effect on BFTC905 cells” value in experiment [2] was “minor toxicity effect on BFTC905 cells”.
In the experiment with A549 cell line, `CCCCCCOC(=O)CCC(=O)N1CCN(CCCOc2cc3c(Nc4ccc(F)c(Cl)c4)ncnc3cc2OC)CC1` [Analogue-12, hexyl 4-(4-(3-(4-(3-chloro-4-fluorophenylamino)-7-methoxyquinazolin-6-yloxy)propyl)piperazin-1-yl)-4-oxobutanoate] registered a viability at 10 µM of 89.3%, a viability at 20 µM of 85.1%, a viability at 40 µM of 74.2% and a viability at 60 µM of 63.6%. For the same molecule, the viability at 80 µM in the experiment with A549 cell line amounted to 42.9%.
Take `CCOC(=O)CCC(=O)N1CCN(CCCOc2cc3c(Nc4ccc(F)c(Cl)c4)ncnc3cc2OC)CC1` [Analogue-8, ethyl 4-(4-(3-(4-(3-chloro-4-fluorophenylamino)-7-methoxyquinazolin-6-yloxy)propyl)piperazin-1-yl)-4-oxobutanoate]: in the experiment with A549 cell line, the viability at 10 µM was determined as 77.6%, the viability at 20 µM was 70%, the viability at 40 µM was 67.4% and the viability at 60 µM is 61.6%. In the experiment with A549 cell line, the viability at 80 µM was 35.6%.
Taken in the same sequence, the figures for `COC(=O)CCCCC(=O)N1CCN(CCCOc2cc3c(Nc4ccc(F)c(Cl)c4)ncnc3cc2OC)CC1` [Analogue-4, methyl 6-(4-(3-(4-(3-chloro-4-fluorophenylamino)-7-methoxyquinazolin-6-yloxy)propyl)piperazin-1-yl)-6-oxohexanoate] were 94.6%, 90.4%, 84.3%, 83.3% and 79.4%.
Taken in the same sequence, the figures for `CCCCOC(=O)CCC(=O)N1CCN(CCCOc2cc3c(Nc4ccc(F)c(Cl)c4)ncnc3cc2OC)CC1` [Analogue-10, butyl 4-(4-(3-(4-(3-chloro-4-fluorophenylamino)-7-methoxyquinazolin-6-yloxy)propyl)piperazin-1-yl)-4-oxobutanoate] were 94.4%, 86%, 79.1%, 64.1% and 36.9%.
For `CCCCCOC(=O)CCC(=O)N1CCN(CCCOc2cc3c(Nc4ccc(F)c(Cl)c4)ncnc3cc2OC)CC1` [Analogue-11, pentyl 4-(4-(3-(4-(3-chloro-4-fluorophenylamino)-7-methoxyquinazolin-6-yloxy)propyl)piperazin-1-yl)-4-oxobutanoate], in the experiment with A549 cell line, the viability at 10 µM amounted to 87.1%, the viability at 20 µM was determined as 81.2%, the viability at 40 µM stood at 63.6% and the viability at 60 µM came out at 30%. Further, the viability at 80 µM with A549 cell line amounted to 18.2%.
For `CCCCCCCCCCCOC(=O)CCC(=O)N1CCN(CCCOc2cc3c(Nc4ccc(F)c(Cl)c4)ncnc3cc2OC)CC1` [Analogue-17, undecyl 4-(4-(3-(4-(3-chloro-4-fluorophenylamino)-7-methoxyquinazolin-6-yloxy)propyl)piperazin-1-yl)-4-oxobutanoate], in that order: 93.4%, 85.2%, 12%, 3.9% and 2.8%.
In the experiment on A549 cell line, `COC(=O)CCC(=O)N1CCN(CCCOc2cc3c(Nc4ccc(F)c(Cl)c4)ncnc3cc2OC)CC1` [Analogue-1, methyl 4-(4-(3-(4-(3-chloro-4-fluorophenylamino)-7-methoxyquinazolin-6-yloxy)propyl)piperazin-1-yl)-4-oxobutanoate] registered a viability at 10 µM of 89.1%, a viability at 20 µM of 85.6%, a viability at 40 µM of 75.9% and a viability at 60 µM of 74.4%. The viability at 80 µM with A549 cell line came to 75.9%. The “toxicity effect on RKO cells” value in experiment [1] was “more effective on cell death of RKO cells and BFTC905 cells than Iressa”. In addition, the “toxicity effect on BFTC905 cells” value in experiment [2] is “more effective on cell death of RKO cells and BFTC905 cells than Iressa”.
